# Source: US20050106168A1, “Methods and compositions for treating nephrotic syndrome” (priority 2003, published 2005)
# Legend:
# [1] = test system: Wistar rats showing proteinuria; experiment: Effect of treatment on proteinuria (urinary protein by sulfosalicylic acid turbidimetry) in BSA-injected rats; type: in vivo, rat; details: BSA 350 mg/kg i.v., intragastric twice daily, yeast compositions 1.0 ml/100 g, pednisone 0.25 mg/100 g
# Protocol: (§1) The activated yeast compositions used in the following examples were prepared as described above, using Saccharomyces cerevisiae Hansen AS2.502, cultured in the presence of an alternating electric field having the electric field frequency and field strength exemplified in the parentheses following the recommended ranges listed in Section IV, supra. Control (i.e., untreated) yeast compositions were those prepared in the same manner as described in Section VI, supra, except that the yeast cells were cultured in the absence of EMFs. Unless otherwise specified, all compositions of interest were administered to the animals by intragastric feeding.
# To test the ability of the activated yeast compositions to reduce the level of urinary protein, sixty healthy Wistar rats with average weight of about 200-220 g (4-7 months old, half of them male and the other half female) were chosen and males and females were kept in separate cages. […] Urine samples were collected from the fine cancellated base of metabolic cages, and the amount of protein in the samples was determined by […]. […]
# The amount of urinary protein was determined by sulfosalicylic acid turbidimetry. The volume of each urine sample was first measured (ml). […] Ten minutes later, the absorption of the sample test tube was measured at 620 nm against the control tube. […]
# [2] = test system: Wistar rats showing proteinuria; experiment: Effect of treatment on serum protein (biuret method) in BSA-injected rats; type: in vivo, rat; details: Wistar rats prepared as in Example 1; intragastric twice daily for six weeks; yeast compositions 1.0 ml/100 g, pednisone 0.2 mg/100 g
# Protocol: as §1, with “feeding. […]” for “feeding.”
# Subsequently, a composition of interest was administered twice daily to each of the four groups of rats for six weeks. […] The amount of protein in the supernatant (serum protein) was determined.
# To determine the amount of serum protein, 50 μl of the supernatant and standard serum protein were added into two separate tubes. […] The mixtures were placed in water bath at 37° C. for 10 minutes and measured for absorption at 546 nm. The concentration of serum protein was calculated according to the following formula: [Serum Protein]=[absorption for the testing sample/absorption for the standard]×[standard serum protein](g/dl).
compound,measurement,setting,value
"C[C@]12C=CC(=O)C=C1CC[C@@H]1[C@@H]2C(=O)C[C@@]2(C)[C@H]1CC[C@]2(O)C(=O)CO [Pednisone, pednisone (metacortandiacin)]","Urinary Protein (mg in 100 ml urine sample) in a 24-hour Period, 8-Week Treatment",[1]; last day of eighth week,4.22 ± 1.34 mg in 100 ml urine sample
same,"Urinary Protein (mg in 100 ml urine sample) in a 24-hour Period, 4-Week Treatment",[1]; last day of fourth week,4.57 ± 1.42 mg in 100 ml urine sample
same,Serum Protein,[2],6.41 ± 3.32 g/dL
